Here are results for twelve compounds from patent US9751874B2, “Hydroxy containing FXR (NR1H4) modulating compounds” (Gilead Sciences, Inc., priority 2014, dated 2017).

pEC50: −log10 of the molar value.

Experiment [1] addresses T1, human FXR alpha ligand binding domain (Homo sapiens, UniProt Q96RI1).
T1 construct: made in house; host or cells: E. coli BL21(DE3), vector pDEST15
T1 sequence (Q96RI1 187-472 isoform Q96RI1-2): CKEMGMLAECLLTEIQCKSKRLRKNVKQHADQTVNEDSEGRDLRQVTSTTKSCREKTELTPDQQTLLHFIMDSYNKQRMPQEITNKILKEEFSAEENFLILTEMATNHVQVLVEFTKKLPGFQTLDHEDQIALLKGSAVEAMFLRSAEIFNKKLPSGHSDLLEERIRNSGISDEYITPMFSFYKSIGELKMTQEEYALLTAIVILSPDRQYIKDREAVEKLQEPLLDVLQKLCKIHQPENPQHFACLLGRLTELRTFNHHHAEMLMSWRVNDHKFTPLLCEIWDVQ
Put plainly: FRET activity assay (ligand mediated cofactor peptide interaction, LANCE). The class given is biochemical. To be noted: GST-FXR-LBD / biotinylated SRC-1 peptide (676-700), read-out: F EC50. As for the experimental part: Determination of a ligand mediated cofactor peptide interaction to quantify ligand binding to the nuclear receptor FXR was performed as follows: Preparation of human FXR alpha ligand binding domain: The human FXRalpha LBD was expressed in E. coli strain BL21(DE3) as an N-terminally GST tagged fusion protein. The DNA encoding the FXR ligand binding domain was cloned into vector pDEST15 (Invitrogen). Expression was under control of an IPTG inducible T7 promoter. The amino acid boundaries of the ligand binding domain were amino acids 187-472 of Database entry NM_005123 (RefSeq). Expression and purification of the FXR-LBD: An overnight preculture of a transformed E. coli strain was diluted 1:20 in LB-Ampicillin medium and grown at 30° C. to an optical density of OD600=0.4-0.6. Gene expression was then induced by addition of 0.5 mM IPTG. Cells were incubated an additional 6 h at 30° C., 180 rpm. Cells were collected by centrifugation (7000×g, 7 min, rt). Per liter of original cell culture, cells were resuspended in 10 mL lysis buffer (50 mM Glucose, 50 mM Tris pH 7.9, 1 mM EDTA and 4 mg/mL lysozyme) and left on ice for 30 min. Cells were then subjected to sonication and cell debris removed via centrifugation (22000×g, 30 min, 4° C.). Per 10 mL of supernatant 0.5 mL prewashed Glutathione 4B sepharose slurry (Qiagen) was added and the suspension kept slowly rotating for 1 h at 4° C. Glutathione 4B sepharose beads were pelleted by centrifugation (2000×g, 15 sec, 4° C.) and washed twice in wash buffer (25 mM Tris, 50 mM KCl, 4 mM MgCl2 and 1M NaCl). The pellet was resuspended in 3 mL elution buffer per liter of original culture (elution buffer: 20 mM Tris, 60 mM KCl, 5 mM MgCl2 and 80 mM glutathione added immediately prior to use as powder). The suspension was left rotating for 15 min at 4° C., the beads pelleted and eluted again with half the volume of elution buffer than the first time. The eluates were pooled and dialysed overnight in 20 mM Hepes buffer (pH 7.5) containing 60 mM KCl, 5 mM MgCl2 as well as 1 mM dithiothreitol and 10% (v/v) glycerol. The protein was analysed by SDS-Page.
The method measures the ability of putative ligands to modulate the interaction between the purified bacterial expressed FXR ligand binding domain (LBD) and a synthetic biotinylated peptide based on residues 676-700 of SRC-1 (LCD2, 676-700). The sequence of the peptide used was B—[…]—COOH where the N-terminus was biotinylated (B). The ligand binding domain (LBD) of FXR was expressed as fusion protein with GST in BL-21 cells using the vector pDEST15. Cells were lysed by sonication, and the fusion proteins purified over glutathione sepharose (Pharmacia) according to the manufacturers instructions. For screening of compounds for their influence on the FXR-peptide interaction, the Perkin Elmer LANCE technology was applied. This method relies on the binding dependent energy transfer from a donor to an acceptor fluorophor attached to the binding partner of interest. For ease of handling and reduction of background from compound fluorescence LANCE technology makes use of generic fluorophore labels and time resolved detection Assays were done in a final volume of 25 μL in a 384 well plate, in a Tris-based buffer (20 mM Tris-HCl pH 7.5; 60 mM KCl, 5 mM MgCl2; 35 ng/μL BSA), containing 20-60 ng/well recombinantly expressed FXR-LBD fused to GST, 200-600 nM N-terminally biotinylated peptide, representing SRC1 aminoacids 676-700, 200 ng/well Streptavidin-xIAPC conjugate (Prozyme) and 6-10 ng/well Eu W1024-antiGST (Perkin Elmer). DMSO content of the samples was kept at 1%. After generation of the assay mix and diluting the potentially FXR modulating ligands, the assay was equilibrated for 1 h in the dark at rt in FIA-plates black 384 well (Greiner). The LANCE signal was detected by a Perkin Elmer VICTOR2VTM Multilabel Counter. The results were visualized by plotting the ratio between the emitted light at 665 and 615 nm. […]

The target of experiment [2] is T2, FXR ligand binding domain (Homo sapiens, UniProt Q96RI1).
T2 construct: expressed in transfected cells; host or cells: HEK293 cells, transiently transfected with pCMV-BD-FXR-LBD, pFR-Luc and pRL-CMV
T2 sequence (Q96RI1 187-472 isoform Q96RI1-2): T1 sequence (Q96RI1 187-472 isoform Q96RI1-2)
Put plainly: Mammalian One Hybrid (M1H) assay, Gal4 promoter driven transactivation in HEK293 cells. Type of experiment: cell-based. The conditions noted are these: Gal4-FXR-LBD luciferase reporter, 16 h. The protocol:
Mammalian One Hybrid (M1H) Assay
Determination of a ligand mediated Gal4 promoter driven transactivation to quantify ligand binding mediated activation of FXR was performed as follows: The cDNA part encoding the FXR ligand binding domain was cloned into vector pCMV-BD (Stratagene) as a fusion to the yeast GAL4 DNA binding domain under the control of the CMV promoter. The amino acid boundaries of the ligand binding domain were amino acids 187-472 of Database entry NM_005123 (RefSeq). The plasmid pFR-Luc (Stratagene) was used as the reporter plasmid, containing a synthetic promoter with five tandem repeats of the yeast GAL4 binding sites, driving the expression of the Photinus pyralis (American firefly) luciferase gene as the reporter gene. In order to improve experimental accuracy the plasmid pRL-CMV (Promega) was cotransfected. pRL-CMV contains the constitutive CMV promoter, controlling the expression of the Renilla reniformis luciferase. All Gal4 reporter gene assays were done in HEK293 cells (obtained from DSMZ, Braunschweig, Germany) grown in MEM with L-Glutamine and Earle's BSS supplemented with 10% fetal bovine serum, 0.1 mM nonessential amino acids, 1 mM sodium pyruvate, and 100 units Penicilin/[…] per mL at 37° C. in 5% CO2. Medium and supplements were obtained from Invitrogen. For the assay, […] cells were plated per well in 96 well plates in 100 μL per well MEM without Phenol Red and L-Glutamine and with Earle's BSS supplemented with 10% charcoal/dextran treated FBS (HyClone, South Logan, Utah), 0.1 mM nonessential amino acids, 2 mM glutamine, 1 mM sodium pyruvate, and 100 units Penicilin/[…] per mL, incubated at 37° C. in 5% CO2. The following day the cells were >90% confluence. Medium was removed and cells were transiently transfected using 20 μL per well of a OptiMEM—polyethylene-imine-based transfection-reagent (OptiMEM, Invitrogen; Polyethyleneimine, Aldrich Cat No. 40,827-7) including the three plasmids described above. MEM with the same composition as used for plating cells was added 2-4 h after addition of transfection mixture. Then compound stocks, prediluted in MEM were added (final vehicle concentration not exceeding 0.1%). Cells were incubated for additional 16 h before firefly and renilla luciferase activities were measured sequentially in the same cell extract using a Dual-Light-Luciferase-Assay system (Dyer et al., Anal. Biochem. 2000, 282, 158-161). All experiments were done in triplicates.

As to `N#Cc1ccc2nc([C@]3(O)[C@@H]4CC[C@H]3C[C@H](OCc3c(-c5c(Cl)cccc5Cl)noc3C3CC3)C4)sc2c1` [Example 8-5, 2-((1R,3s,5S,8r)-3-((5-Cyclopropyl-3-(2,6-dichlorophenyl)isoxazol-4-yl)methoxy)-8-hydroxybicyclo[3.2.1]octan-8-yl)benzo[d]thiazole-6-carbonitrile], the pEC50 is 7.51 in experiment [1] and 7.24 in experiment [2].

With `O=C(O)c1ccnc([C@]2(O)[C@@H]3CC[C@H]2C[C@H](OCc2c(-c4c(Cl)cccc4Cl)noc2C2CC2)C3)c1` [Example 11-26], the pEC50 was 7.28 in experiment [1] and 5.74 in experiment [2].

As to `CC1(C)C[C@](O)(c2nc3c(F)cc(C(=O)O)cc3s2)CC[C@H]1OCc1c(-c2c(Cl)cccc2Cl)noc1C1CC1` (racemic) [Example 11-33, 2-((1S,4R)-4-((5-Cyclopropyl-3-(2,6-dichlorophenyl)isoxazol-4-yl)methoxy)-1-hydroxy-3,3-dimethylcyclohexyl)-4-fluorobenzo[d]thiazole-6-carboxylic acid], the values for the pEC50 in experiment [1] and in experiment [2] were 7.44 and 7.42, respectively.

For `O=C(O)c1ccnc2ccc([C@]3(O)CC[C@@H](OCc4c(-c5c(Cl)cccc5Cl)noc4C4CC4)CC3)cc12` [Example 30, 6-((1s,4s)-4-((5-Cyclopropyl-3-(2,6-dichlorophenyl)isoxazol-4-yl)methoxy)-1-hydroxycyclohexyl)quinoline-4-carboxylic acid], the pEC50 in experiment [1] is 6.72; in experiment [2] it was below 5.52.

In the case of `O=C(O)c1ccc2nc([C@]3(O)CC[C@@H](OCc4c(C5CCC(F)(F)CC5)noc4C4CC4)CC3)sc2c1` [Example 11-1, 2-((1s,4s)-4-((5-Cyclopropyl-3-(4,4-difluorocyclohexyl)isoxazol-4-yl)methoxy)-1-hydroxycyclohexyl)benzo[d]thiazole-6-carboxylic acid], the pEC50 is 5.66 in experiment [1] and below 5.52 in experiment [2].

As for `O=C(O)Cc1nc([C@]2(O)[C@@H]3CC[C@H]2C[C@H](OCc2c(-c4c(Cl)cccc4Cl)noc2C2CC2)C3)oc1C(F)(F)F` [Example 45, 2-(2-((1R,3s,5S,8r)-3-((5-Cyclopropyl-3-(2,6-dichlorophenyl)isoxazol-4-yl)methoxy)-8-hydroxybicyclo[3.2.1]octan-8-yl)-5-(trifluoromethyl)oxazol-4-yl)acetic acid], the pEC50 was 8.22 in experiment [1] and 8.10 in experiment [2].

For the compound `O=C(O)c1cccc2nc([C@]3(O)CC[C@@H](OCc4c(-c5c(Cl)cccc5Cl)noc4C4CC4)CC3)sc12` [Example 26, 2-((1s,4s)-4-((5-Cyclopropyl-3-(2,6-dichlorophenyl)isoxazol-4-yl)methoxy)-1-hydroxycyclohexyl)benzo[d]thiazole-7-carboxylic acid], the pEC50 is 7.77 in experiment [1] and 6.68 in experiment [2].

Take `O=C(O)c1cc(F)c2nc([C@]3(O)CC[C@@H](OCc4c(-c5c(Cl)cncc5Cl)noc4C4CC4)CC3)sc2c1` [Example 11-34, 2-((1s,4s)-4-((5-Cyclopropyl-3-(3,5-dichloropyridin-4-yl)isoxazol-4-yl)methoxy)-1-hydroxycyclohexyl)-4-fluorobenzo[d]thiazole-6-carboxylic acid]: the pEC50 in experiment [1] is 7.26; in experiment [2] it was 6.42.

Consider `CC1(OCc2c(-c3c(Cl)cccc3Cl)noc2C2CC2)C[C@H]2CC[C@@H](C1)[C@]2(O)c1nc2c(F)cc(C(=O)O)cc2s1` (single isomer, unassigned) [Example 11-39], for which the pEC50 in experiment [1] was 6.41; in experiment [2], 6.60.

For `O=C(O)c1cc(F)c2nc([C@]3(O)CC4CC3CC4OCc3c(-c4c(Cl)cccc4Cl)noc3C3CC3)sc2c1` (stereo partly drawn) [Example 11-49, 2-((1R,2S,4R)-5-((5-Cyclopropyl-3-(2,6-dichlorophenyl)isoxazol-4-yl)methoxy)-2-hydroxybicyclo[2.2.1]heptan-2-yl)-4-fluorobenzo[d]thiazole-6-carboxylic acid], the results for the pEC50 in experiment [1] and in experiment [2] were 7.55 and 7.03, respectively.

`O=C(O)Cc1csc([C@]2(O)[C@@H]3CC[C@H]2C[C@H](OCc2c(-c4c(Cl)cccc4Cl)noc2C2CC2)C3)n1` [Example 46, 2-(2-((1R,3s,5S,8r)-3-((5-Cyclopropyl-3-(2,6-dichlorophenyl)isoxazol-4-yl)methoxy)-8-hydroxybicyclo[3.2.1]octan-8-yl)thiazol-4-yl)acetic acid]: the pEC50 was 7.38 in experiment [1] and 6.59 in experiment [2].

Consider `O=C(O)c1ccc2nc([C@]3(O)CC[C@@H](OCc4c(-c5c(Cl)cncc5Cl)noc4C4CC4)CC3)sc2c1` [Example 11-16, 2-((1s,4s)-4-((5-Cyclopropyl-3-(3,5-dichloropyridin-4-yl)isoxazol-4-yl)methoxy)-1-hydroxycyclohexyl)benzo[d]thiazole-6-carboxylic acid], for which the pEC50 is 7.08 in experiment [1] and 6.24 in experiment [2].
